Patent US10710986B2, “PD-1/PD-L1 inhibitors” (Gilead Sciences, Inc., priority 2018, dated 2020)
Several values for one entry are separate records, joined by “and”; a condition that tells them apart may be missing. Equal entries are not always repeated.

These molecules were tested against PD-1/PD-L1 (Homo sapiens (Human), UniProt Q9NZQ7) (assay: PD-1/PD-L1 biochemical protein-protein interaction assay (ALPHA)). Settings: 0.3 nM His tagged PD-L1, 2.5 nM biotinylated Fc-PD-1, 60 minutes at 25° C., read-out: IC50 PD-L1-PD1.
Chain of PD-1/PD-L1 (Q9NZQ7 19-238): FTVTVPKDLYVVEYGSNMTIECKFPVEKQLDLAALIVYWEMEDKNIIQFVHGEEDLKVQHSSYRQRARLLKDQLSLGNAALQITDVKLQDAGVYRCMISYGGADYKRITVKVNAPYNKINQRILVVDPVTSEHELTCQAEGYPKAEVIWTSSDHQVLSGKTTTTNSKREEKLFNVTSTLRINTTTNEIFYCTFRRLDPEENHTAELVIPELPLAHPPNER

Row | Compound | IC50 [nM]
1 | COc1nc(-c2cccc(-c3cccc(-c4cc(C)c(CNC[C@@H]5CCC(=O)N5)c(OC)n4)c3Cl)c2Cl)cnc1CNC[C@@H]1CCC(=O)N1 [compound 628] | 0.064
2 | COc1nc(-c2cccc(-c3cccc(-c4cnc(CN5CC(C)(O)C5)c(OC)n4)c3Cl)c2Cl)cnc1CN1CC(O)C1 [compound 629] | 0.083
3 | COc1nc(-c2cccc(-c3cccc(-c4cnc(CN)c(OC)n4)c3Cl)c2Cl)ccc1CNC[C@@H]1CCC(=O)N1 [compound 630] | 0.437
4 | COc1nc(-c2cccc(-c3cccc(-c4cnc(CN5CC(C)(O)C5)c(OC)n4)c3Cl)c2Cl)ccc1CNC[C@@H]1CCC(=O)N1 [compound 631] | 0.064
5 | COc1nc(-c2cccc(-c3cccc(-c4cnc(CN5CC6(C5)CN(C(C)=O)C6)c(OC)n4)c3Cl)c2Cl)ccc1CNC[C@@H]1CCC(=O)N1 [compound 632] | 0.172
6 | COc1nc(-c2cccc(-c3cccc(-c4cnc(CN5CC6(CNC(=O)C6)C5)c(OC)n4)c3Cl)c2Cl)ccc1CNC[C@@H]1CCC(=O)N1 [compound 633] | 0.064
7 | COc1nc(-c2cccc(-c3cccc(-c4cnc(CN5CCC(CO)(CO)C5)c(OC)n4)c3Cl)c2Cl)cnc1CN1CCC(CO)(CO)C1 [compound 634] | 0.064
8 | COc1nc(-c2cccc(-c3cccc(-c4cnc(CN5CC(C(C)(C)O)C5)c(OC5CC5)n4)c3Cl)c2Cl)ccc1CN1CC(C(C)(C)O)C1 [compound 635] | 0.098
9 | COc1nc(-c2cccc(-c3cccc(-c4cnc(CN5CC6(CCC(=O)N6)C5)c(OC5CC5)n4)c3Cl)c2Cl)ccc1CN1CC2(CCC(=O)N2)C1 [compound 636] | 0.12
10 | COc1nc(-c2cccc(-c3cccc(-c4cnc(CN5CC6(CNC(=O)C6)C5)c(OC5CC5)n4)c3Cl)c2Cl)ccc1CN1CC2(CNC(=O)C2)C1 [compound 637] | 0.134
11 | COc1nc(-c2cccc(-c3cccc(-c4cnc(CNC[C@@H]5CCC(=O)N5)c(OC5CC5)n4)c3Cl)c2Cl)ccc1CNC[C@@H]1CCC(=O)N1 [compound 638] | 0.079
12 | COc1nc(-c2cccc(-c3cccc(-c4cnc(CN[C@H]5C[C@@H](C(N)=O)C5)c(OC)n4)c3Cl)c2Cl)ccc1CNC[C@@H]1CNC(=O)C1 [compound 639] | 0.066
13 | COc1nc(-c2cccc(-c3cccc(-c4cnc(CN[C@H]5CCC[C@H]5O)c(OC)n4)c3Cl)c2Cl)ccc1CNC[C@@H]1CNC(=O)C1 [compound 640] | 0.167
14 | COc1nc(-c2cccc(-c3cccc(-c4cnc(C5=NCCN5)c(OC)n4)c3Cl)c2Cl)ccc1CN1CC2(CCC(=O)N2)C1 [compound 641] | 0.064
15 | COc1nc(-c2cccc(-c3cccc(-c4cnc(C5=NCCN5)c(OC)n4)c3Cl)c2Cl)ccc1CN1CC(C)(O)C1 [compound 642] | 0.064
16 | COc1nc(-c2cccc(-c3cccc(-c4cnc(C5=NC[C@H](C)N5)c(OC)n4)c3Cl)c2Cl)ccc1CNC[C@@H]1CCC(=O)N1 [compound 643] | 0.064
17 | COc1nc(-c2cccc(-c3cccc(-c4cnc(C5=NC[C@@H](C)N5)c(OC)n4)c3Cl)c2Cl)ccc1CNC[C@@H]1CCC(=O)N1 [compound 644] | 0.093
18 | COc1nc(-c2cccc(-c3cccc(-c4cnc(C5=NCCN5)c(OC)n4)c3Cl)c2Cl)ccc1CNC[C@@H]1CCC(=O)N1 [compound 645] | 0.064

Row | Compound | IC50 [nM]
19 | COc1nc(-c2cccc(-c3cccc(-c4cnc(C5=NC[C@H](C)N5)c(OC)n4)c3Cl)c2Cl)cnc1CNC[C@@H]1CCC(=O)N1 [compound 646] | 0.064
20 | COc1nc(-c2cccc(-c3cccc(-c4cnc(C5=NC[C@@H](C)N5)c(OC)n4)c3Cl)c2Cl)cnc1CNC[C@@H]1CCC(=O)N1 [compound 647] | 0.064
21 | COc1nc(-c2cccc(-c3cccc(-c4cnc(CN[C@H]5CC[C@@H](CO)C5)c(OC)n4)c3Cl)c2Cl)cnc1CNC[C@@H]1CCC(=O)N1 [compound 648] | 0.08
22 | COc1nc(-c2cccc(-c3cccc(-c4cnc(CN5CC6(CCC(=O)N6)C5)c(OC)n4)c3Cl)c2F)ccc1CN1CC2(CCC(=O)N2)C1 [compound 649] | 0.128
23 | COc1nc(-c2cccc(-c3cccc(-c4cc(C)c(CN5CC6(CCC(=O)N6)C5)c(OC)n4)c3F)c2Cl)cnc1CN1CC2(CCC(=O)N2)C1 [compound 650] | 0.064
24 | COc1nc(-c2cccc(-c3cccc(-c4cc(C)c(CN5CC6(CNC(=O)C6)C5)c(OC)n4)c3F)c2Cl)cnc1CN1CC2(CNC(=O)C2)C1 [compound 651] | 0.064
25 | COc1nc(-c2cccc(-c3cccc(-c4cc(C)c(CNC[C@H]5C[C@H](O)C5)c(OC)n4)c3Cl)c2Cl)cnc1CNC[C@@H]1CCC(=O)N1 [compound 652] | 0.12
26 | COc1nc(-c2cccc(-c3cccc(-c4cc(C)c(CN5CC6(C5)CN(C(C)=O)C6)c(OC)n4)c3Cl)c2Cl)cnc1CNC[C@@H]1CCC(=O)N1 [compound 653] | 0.064
27 | COc1nc(-c2cccc(-c3cccc(-c4cc(C)c(CN5CC(C(=O)O)C6(CCOC6)C5)c(OC)n4)c3Cl)c2Cl)cnc1CNC[C@@H]1CCC(=O)N1 (some centres unmarked) [compound 654] | 0.071
28 | COc1nc(-c2cccc(-c3cccc(-c4cc(C)c(CN5C[C@@H]6CCC[C@]6(C(=O)O)C5)c(OC)n4)c3Cl)c2Cl)cnc1CNC[C@@H]1CCC(=O)N1 [compound 655] | 0.064
29 | COc1nc(-c2cccc(-c3cccc(-c4cnc(CNC[C@H]5C[C@H](O)C5)c(OC)n4)c3Cl)c2Cl)ccc1CNC[C@@H]1CCC(=O)N1 [compound 656] | 0.167
30 | COc1nc(-c2cccc(-c3cccc(-c4cnc(CN5CC(OCC(N)=O)C5)c(OC)n4)c3Cl)c2Cl)cnc1CN1CC(OCC(N)=O)C1 [compound 657] | 0.064
31 | COc1nc(-c2cccc(-c3cccc(-c4cnc(CNC[C@@H]5CCC(=O)N5)c(OC)n4)c3Cl)c2Cl)cnc1CNCC1CCNC1=O (some centres unmarked) [compound 658] | 0.196
32 | COc1nc(-c2cccc(-c3cccc(-c4cnc(CNC[C@@H]5CCC(=O)N5)c(OC)n4)c3Cl)c2Cl)cnc1CNCC1CCNC(=O)C1 (some centres unmarked) [compound 659] | 0.121
33 | COc1nc(-c2cccc(-c3cccc(-c4cnc(CNCC5CCNC(=O)C5)c(OC)n4)c3Cl)c2Cl)cnc1CNCC1CCNC(=O)C1 (centres unmarked) [compound 660] | 0.135
34 | COc1nc(-c2cccc(-c3cccc(-c4cnc(CNCC5CCNC5=O)c(OC)n4)c3Cl)c2Cl)cnc1CNCC1CCNC1=O (centres unmarked) [compound 661] | 0.064
35 | COc1nc(-c2cccc(-c3cccc(-c4cnc(CN5CC6(C5)CN(C(C)=O)C6)c(OC)n4)c3Cl)c2C)cnc1CN1CC2(C1)CN(C(C)=O)C2 [compound 662] | 0.082
36 | COc1nc(-c2cccc(-c3cccc(-c4cnc(CN5CC[C@@H](CNC(C)=O)C5)c(OC)n4)c3Cl)c2Cl)cnc1CN1CC[C@@H](CNC(C)=O)C1 [compound 663] | 0.281

What follows are molecules tested on HBV-specific CD8^+ T cells (assay: IFN-γ and granzyme B production in HBV-specific CD8+ T cells from CHB patient PBMCs (7-day expansion and recall, flow cytometry)). Settings: 650 nM; HBV core peptide-stimulated PBMCs from 14 CHB donors.
Format: cell-based, human
Procedure: PBMCs were isolated from whole blood using a standard Ficoll® Paque gradient. Briefly, 25-30 mL of blood was gently overlaid on top of 15 mL Ficoll® Paque Plus solution (GE Healthcare, Chicago, Ill.) in a 50 mL Falcon tube, and centrifuged in an Allegra X-14R (Beckman Coulter, Indianapolis, Ind.) at 520 g for 20 minutes at 25° C. […] Next, the cells were centrifuged at 520 g for 5 minutes and red blood cells (RBC) lysed for 5 minutes at room temperature using RBC Lysis Buffer (eBioscience, San Diego, Calif.). […] PBMCs were either subsequently used for the T cell expansion assay, or were cryopreserved with 10% DMSO in FBS before further use.
PBMCs were seeded at 2-4×10^5 cells/well in 96-well round bottom plates (Corning, N.Y.). […] PBMCs were incubated for 7 days at 37° C. with 5% CO2 in a humidified incubator. […] To inhibit protein transport, 1 μg/mL brefeldin. A solution (Sigma) was added to each well. After overnight incubation, cells were processed for immunostaining and flow cytometry as described herein.
Washed cells were resuspended in Live/Dead Aquamine Stain (Invitrogen) per manufacturer's instructions to determine the viability of the cells by flow cytometry. Live/Dead Aqua stained PBMCs were washed twice with FACS staining buffer (1% FBS in PBS), and then incubated with 50 μL of Fc blocking reagent (BD Biosciences, Franklin Lakes, N.J.) for 10 minutes at room temperature. A mixture of antibodies (50 μL/well) described in Table 6 were added to the blocking solution for surface staining, and PBMCs were incubated with the antibodies for 40 minutes at 4° C. […] Cells were washed twice with the permeabilization reagent included in the FoxP3 staining kit and incubated with antibodies for intracellular staining of IFN-γ and GrB (Table 6) at 1.0 μg/mL. After 1 hour incubation at 4° C., PBMCs were centrifuged and washed twice before being resuspended in FACS buffer. Stained PBMCs were analyzed by flow cytometry using a BD LSRFortessa X-20 Cell Analyzer (Becton Dickinson). BD Comp Beads (BD Biosciences) were used as compensation controls. CD8^+ and CD4^+ T cells were identified by gating on the live Aquamine ^−CD3^+CD8^+ and Aquamine-CD3+CD4^+ PBMC population respectively.
Flow cytometry data was analyzed using FlowJo Flow Cytometry Analysis Software v10 (TreeStar, Ashland, Oreg.). Data was exported and statistical analysis was performed using GraphPad Prism v6 (GraphPad Software, La Jolla, Calif.). Statistical significance relative to the DMSO control was calculated by two-tailed, paired t-test.

Row | Compound | increase of frequency of GrB^+ CD8^+ T cells compared with DMSO [fold] | increase of frequency of IFN-γ^+ CD8^+ T cells compared with DMSO [fold]
37 | COc1nc(-c2cccc(-c3cccc(-c4cnc(CNC[C@@H]5CCC(=O)N5)c(OC)n4)c3Cl)c2Cl)cnc1CNC[C@@H]1CCC(=O)N1 [compound 139] | 1.2 | 2.5

Same assay, conditions: PBMCs from 9 of the 14 CHB donors; compound 139 650 nM, durvalumab 10 μg/mL

Row | Compound | increase of GrB^+ CD8^+ T cells, comparison with durvalumab [fold] | increase of IFN-γ^+ CD8^+ T cells, comparison with durvalumab [fold]
38 | COc1nc(-c2cccc(-c3cccc(-c4cnc(CNC[C@@H]5CCC(=O)N5)c(OC)n4)c3Cl)c2Cl)cnc1CNC[C@@H]1CCC(=O)N1 [compound 139] | 1.2 | 2.5

Same assay, conditions: average over CHB donors (14 for compound 139, 9 for durvalumab)

Row | Compound | % GrB+ (GrB+ CD8+ T cells), Average [%] | % IFN-γ+ (IFN-γ+ CD8+ T cells), Average [%]
39 | COc1nc(-c2cccc(-c3cccc(-c4cnc(CNC[C@@H]5CCC(=O)N5)c(OC)n4)c3Cl)c2Cl)cnc1CNC[C@@H]1CCC(=O)N1 [compound 139] | 33.68 | 3.13

Same assay, conditions: individual CHB donor; HBV core peptide-stimulated PBMCs; compound 139 at 650 nM

Row | Compound | % GrB+ (GrB+ CD8+ T cells) | % IFN-γ+ (IFN-γ+ CD8+ T cells)
40 | COc1nc(-c2cccc(-c3cccc(-c4cnc(CNC[C@@H]5CCC(=O)N5)c(OC)n4)c3Cl)c2Cl)cnc1CNC[C@@H]1CCC(=O)N1 [compound 139] | 47.80% and 8.78% and 50.30% and 30.67% and 28.15% and 24.10% and 45.05% and 20.20% and 33.50% and 52.67% and 18.93% and 23.23% and 55.80% and 32.30% | 2.63% and 0.94% and 0.41% and 0.61% and 3.06% and 0.90% and 3.28% and 4.69% (2×) and 0.30% and 7.74% and 1.86% and 11.17% and 1.53%
